molecular target: T1, GLP-1R (Homo sapiens, UniProt P43220); experiment: GLP-1R activation cAMP assay (Assay 1 or Assay 2); assay type: cell-based; conditions: cAMP increase in CHO cells stably expressing GLP-1R; compounds run on one of the two cAMP assays
T1 construct: host or cells: CHO cells
Outline: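 CHO cells stably expressing human GLP-1R were incubated 1 h in HBSS/20 mM HEPES/0.1% BSA, then exposed to 10-point agonist dilutions for 30 min at 37 °C. cAMP increase was measured with an HTRF Gs dynamic kit; EC50 from sigmoidal fit of response versus log concentration.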

T1 sequence (P43220 24-463): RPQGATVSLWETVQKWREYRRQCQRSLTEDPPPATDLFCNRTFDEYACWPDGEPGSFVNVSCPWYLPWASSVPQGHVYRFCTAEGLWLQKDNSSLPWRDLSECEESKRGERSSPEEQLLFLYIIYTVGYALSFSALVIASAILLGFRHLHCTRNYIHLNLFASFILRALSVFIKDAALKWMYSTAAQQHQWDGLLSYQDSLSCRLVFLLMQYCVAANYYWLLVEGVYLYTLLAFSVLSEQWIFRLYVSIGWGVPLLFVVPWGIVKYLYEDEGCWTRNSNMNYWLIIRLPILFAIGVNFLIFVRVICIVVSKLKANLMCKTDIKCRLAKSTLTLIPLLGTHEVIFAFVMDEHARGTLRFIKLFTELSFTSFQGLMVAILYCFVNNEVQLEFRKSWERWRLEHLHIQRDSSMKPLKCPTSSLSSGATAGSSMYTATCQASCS

Row | SMILES | EC50
1 | Cn1nccc1C#Cc1ccc(COc2cccc(-c3cc(F)c(Cc4nc5ccc(C(=O)O)cc5n4C[C@@H]4CCO4)cc3F)n2)c(F)c1 [Example 135, (S)-2-(2,5-difluoro-4-(6-((2-fluoro-4-((1-methyl-1H-pyrazol-5-yl)ethynyl)benzyl)oxy)pyridin-2-yl)benzyl)-1-(oxetan-2-ylmethyl)-1H-benzo[d]imidazole-6-carboxylic acid] | 0.34 nM
2 | Cn1nccc1COc1cccc(-c2cc(F)c(Cc3nc4ccc(C(=O)O)cc4n3C[C@@H]3CCO3)cc2F)n1 [Example 36, (S)-2-(2,5-difluoro-4-(6-((1-methyl-1H-pyrazol-5-yl)methoxy)pyridin-2-yl)benzyl)-1-(oxetan-2-ylmethyl)-1H-benzo[d]imidazole-6-carboxylic acid] | 5.28 nM
3 | COc1cc(COc2cccc(-c3cc(F)c(Cc4nc5ccc(C(=O)O)cc5n4C[C@@H]4CCO4)cc3F)n2)nn1C [Example 68, (S)-2-(2,5-difluoro-4-(6-((5-methoxy-1-methyl-1H-pyrazol-3-yl)methoxy)pyridin-2-yl)benzyl)-1-(oxetan-2-ylmethyl)-1H-benzo[d]imidazole-6-carboxylic acid] | 5.37 nM
4 | O=C(O)c1ccc2nc(Cc3cc(F)c(-c4cccc(OCc5cc(C(F)(F)F)no5)n4)cc3F)n(C[C@@H]3CCO3)c2c1 [Example 60, (S)-2-(2,5-difluoro-4-(6-((3-(trifluoromethyl)isoxazol-5-yl)methoxy)pyridin-2-yl)benzyl)-1-(oxetan-2-ylmethyl)-1H-benzo[d]imidazole-6-carboxylic acid] | 1.44 nM
5 | COc1cc(C#Cc2cnn(C)c2)ccc1COc1cccc(-c2cc(F)c(Cc3nc4ccc(C(=O)O)cc4n3C[C@@H]3CCO3)cc2F)n1 [Example 304, (S)-2-(2,5-difluoro-4-(6-((2-methoxy-4-((1-methyl-1H-pyrazol-4-yl)ethynyl)benzyl)oxy)pyridin-2-yl)benzyl)-1-(oxetan-2-ylmethyl)-1H-benzo[d]imidazole-6-carboxylic acid] | 0.524 nM
6 | CC(C)(O)C#Cc1cnc(COc2cccc(-c3cc(F)c(Cc4nc5ccc(C(=O)O)cc5n4C[C@@H]4CCO4)cc3F)n2)s1 [Example 334, (S)-2-(2,5-difluoro-4-(6-((5-(3-hydroxy-3-methylbut-1-yn-1-yl)thiazol-2-yl)methoxy)pyridin-2-yl)benzyl)-1-(oxetan-2-ylmethyl)-1H-benzo[d]imidazole-6-carboxylic acid] | 0.354 nM
7 | Cn1cc(C#Cc2ccc(COc3cccc(-c4cc(F)c(Cc5nc6ccc(C(=O)O)cc6n5C[C@@H]5CCO5)cc4F)n3)nc2Cl)cn1 [Example 358, (S)-2-(4-(6-((6-chloro-5-((1-methyl-1H-pyrazol-4-yl)ethynyl)pyridin-2-yl)methoxy)pyridin-2-yl)-2,5-difluorobenzyl)-1-(oxetan-2-ylmethyl)-1H-benzo[d]imidazole-6-carboxylic acid] | 0.243 nM
8 | Cc1ncc(C#Cc2ccc(COc3cccc(-c4cc(F)c(Cc5nc6ccc(C(=O)O)cc6n5C[C@@H]5CCO5)cc4F)n3)c(F)c2)n1C [Example 149, (S)-2-(4-(6-((4-((1,2-dimethyl-1H-imidazol-5-yl)ethynyl)-2-fluorobenzyl)oxy)pyridin-2-yl)-2,5-difluorobenzyl)-1-(oxetan-2-ylmethyl)-1H-benzo[d]imidazole-6-carboxylic acid] | 0.29 nM
9 | COc1nnc(COc2cccc(-c3ccc(Cc4nc5ccc(C(=O)O)cc5n4[C@@H]4COCC4(C)C)cc3F)n2)s1 [Example 400, (S)-1-(4,4-dimethyltetrahydrofuran-3-yl)-2-(3-fluoro-4-(6-((5-methoxy-1,3,4-thiadiazol-2-yl)methoxy)pyridin-2-yl)benzyl)-1H-benzo[d]imidazole-6-carboxylic acid] | 0.412 nM
10 | O=C(O)c1ccc2nc(Cc3cc(F)c(-c4cccc(OCc5cc6n(n5)CCOC6)n4)cc3F)n(C[C@@H]3CCO3)c2c1 [Example 7, (S)-2-(4-(6-((6,7-dihydro-4H-pyrazolo[5,1-c][1,4]oxazin-2-yl)methoxy)pyridin-2-yl)-2,5-difluorobenzyl)-1-(oxetan-2-ylmethyl)-1H-benzo[d]imidazole-6-carboxylic acid] | 3.71 nM
11 | O=C(O)c1ccc2nc(Cc3cc(F)c(-c4cccc(OCc5cc(C(F)(F)F)on5)n4)cc3F)n(C[C@@H]3CCO3)c2c1 [Example 24, (S)-2-(2,5-difluoro-4-(6-((5-(trifluoromethyl)isoxazol-3-yl)methoxy)pyridin-2-yl)benzyl)-1-(oxetan-2-ylmethyl)-1H-benzo[d]imidazole-6-carboxylic acid] | 1.54 nM
12 | Cn1nc(COc2cccc(-c3cc(F)c(Cc4nc5ccc(C(=O)O)cc5n4C[C@@H]4CCO4)cc3F)n2)cc1Cl [Example 38, (S)-2-(4-(6-((5-chloro-1-methyl-1H-pyrazol-3-yl)methoxy)pyridin-2-yl)-2,5-difluorobenzyl)-1-(oxetan-2-ylmethyl)-1H-benzo[d]imidazole-6-carboxylic acid] | 0.6 nM
13 | COc1nnc(COc2nc(-c3cc(Cl)c(Cc4nc5ccc(C(=O)O)cc5n4[C@@H]4COCC4(C)C)cc3C)ccc2F)s1 [Example 441, (S)-2-(2-chloro-4-(5-fluoro-6-((5-methoxy-1,3,4-thiadiazol-2-yl)methoxy)pyridin-2-yl)-5-methylbenzyl)-1-(4,4-dimethyltetrahydrofuran-3-yl)-1H-benzo[d]imidazole-6-carboxylic acid] | 0.475 nM

The next compounds have a lower EC50 than those just listed; values first:

Row | EC50 | SMILES
14 | 0.084 nM | CC(F)(F)c1cnc(COc2nc(-c3cc(F)c(Cc4nc5c(F)cc(C(=O)O)cc5n4C[C@@H]4CCO4)cc3F)ccc2F)s1 [Example 309, (S)-2-(4-(6-((5-(1,1-difluoroethyl)thiazol-2-yl)methoxy)-5-fluoropyridin-2-yl)-2,5-difluorobenzyl)-4-fluoro-1-(oxetan-2-ylmethyl)-1H-benzo[d]imidazole-6-carboxylic acid]
15 | 0.182 nM | COc1ncc(C#Cc2cnc(COc3cccc(-c4cc(F)c(Cc5nc6ccc(C(=O)O)cc6n5C[C@@H]5CCO5)cc4F)n3)c(F)c2)s1 [Example 294, (S)-2-(2,5-difluoro-4-(6-((3-fluoro-5-((2-methoxythiazol-5-yl)ethynyl)pyridin-2-yl)methoxy)pyridin-2-yl)benzyl)-1-(oxetan-2-ylmethyl)-1H-benzo[d]imidazole-6-carboxylic acid]
16 | 0.1 nM | O=C(O)c1ccc2nc(Cc3cc(F)c(-c4cccc(OCc5ccc(-c6cnn(C7COC7)c6)cc5F)n4)cc3F)n(C[C@@H]3CCO3)c2c1 [Example 164, (S)-2-(2,5-difluoro-4-(6-((2-fluoro-4-(1-(oxetan-3-yl)-1H-pyrazol-4-yl)benzyl)oxy)pyridin-2-yl)benzyl)-1-(oxetan-2-ylmethyl)-1H-benzo[d]imidazole-6-carboxylic acid]
17 | 0.14 nM | O=C(O)c1ccc2nc(Cc3cc(F)c(-c4cccc(OCc5ncc(-c6cncnc6)s5)n4)cc3F)n(C[C@@H]3CCO3)c2c1 [Example 105, (S)-2-(2,5-difluoro-4-(6-((5-(pyrimidin-5-yl)thiazol-2-yl)methoxy)pyridin-2-yl)benzyl)-1-(oxetan-2-ylmethyl)-1H-benzo[d]imidazole-6-carboxylic acid]
18 | 0.123 nM | O=C(O)c1cc(F)c2nc(Cc3cc(F)c(-c4cccc(OCc5ncc(C(F)F)s5)n4)cc3F)n(C[C@@H]3CCO3)c2c1 [Example 324, (S)-2-(4-(6-((5-(difluoromethyl)thiazol-2-yl)methoxy)pyridin-2-yl)-2,5-difluorobenzyl)-4-fluoro-1-(oxetan-2-ylmethyl)-1H-benzo[d]imidazole-6-carboxylic acid]
19 | 0.18 nM | O=C(O)c1ccc2nc(Cc3cc(F)c(-c4cccc(OCc5ccc(-c6cn(C7COC7)nn6)cc5F)n4)cc3F)n(C[C@@H]3CCO3)c2c1 [Example 215, (S)-2-(2,5-difluoro-4-(6-((2-fluoro-4-(1-(oxetan-3-yl)-1H-1,2,3-triazol-4-yl)benzyl)oxy)pyridin-2-yl)benzyl)-1-(oxetan-2-ylmethyl)-1H-benzo[d]imidazole-6-carboxylic acid]
20 | 0.109 nM | Cc1nnc(COc2cccc(-c3cc(F)c(Cc4nc5c(F)cc(C(=O)O)cc5n4[C@@H]4COCC4(C)C)cc3F)n2)s1 [Example 283, (S)-2-(2,5-difluoro-4-(6-((5-methyl-1,3,4-thiadiazol-2-yl)methoxy)pyridin-2-yl)benzyl)-1-(4,4-dimethyltetrahydrofuran-3-yl)-4-fluoro-1H-benzo[d]imidazole-6-carboxylic acid]
21 | 0.041 nM | CC1(C)COC[C@H]1n1c(Cc2ccc(-c3cccc(OCc4ccc(C#N)cc4F)n3)cc2F)nc2c(F)cc(C(=O)O)cc21 [Example 440, (S)-2-(4-(6-((4-cyano-2-fluorobenzyl)oxy)pyridin-2-yl)-2-fluorobenzyl)-1-(4,4-dimethyltetrahydrofuran-3-yl)-4-fluoro-1H-benzo[d]imidazole-6-carboxylic acid]
22 | 0.044 nM | CCOc1nnc(COc2cccc(-c3cc(F)c(Cc4nc5c(F)cc(C(=O)O)cc5n4C[C@@H]4CCO4)cc3F)n2)s1 [Example 312, (S)-2-(4-(6-((5-ethoxy-1,3,4-thiadiazol-2-yl)methoxy)pyridin-2-yl)-2,5-difluorobenzyl)-4-fluoro-1-(oxetan-2-ylmethyl)-1H-benzo[d]imidazole-6-carboxylic acid]
23 | 0.17 nM | COc1cc(C(=O)NC2(C#N)CC2)ncc1COc1cccc(-c2cc(F)c(Cc3nc4ccc(C(=O)O)cc4n3C[C@@H]3CCO3)cc2F)n1 [Example 41, (S)-2-(4-(6-((6-((1-cyanocyclopropyl)carbamoyl)-4-methoxypyridin-3-yl)methoxy)pyridin-2-yl)-2,5-difluorobenzyl)-1-(oxetan-2-ylmethyl)-1H-benzo[d]imidazole-6-carboxylic acid]
24 | 0.051 nM | Cn1ncc(C#Cc2ccc(COc3cccc(-c4cc(F)c(Cc5nc6ccc(C(=O)O)cc6n5C[C@@H]5CCO5)cc4F)n3)c(F)c2)c1C(N)=O [Example 359, (S)-2-(4-(6-((4-((5-carbamoyl-1-methyl-1H-pyrazol-4-yl)ethynyl)-2-fluorobenzyl)oxy)pyridin-2-yl)-2,5-difluorobenzyl)-1-(oxetan-2-ylmethyl)-1H-benzo[d]imidazole-6-carboxylic acid]
